{ooo} = Boc-miniPEG-3 linker between TAMRA and the PNA; {TAMRA} = TAMRA dye conjugated to the PNA N-terminus; {Lys} = C-terminal lysine residue of the PNA

The series can be described thus: Negative-stain transmission electron microscopy (TEM) of lipid/PNA complexes. The class given is physicochemical. Here is the method: Transmission electron microscopy (TEM): Negatively-stained transmission electron microscopic (TEM) images were obtained using FEI Tecnai T12. The samples were prepared by spreading 5 μL 0.001 wt. % solution on a 400 mesh Formvar/carbon film copper grid (Electron Microscopy Sciences, PA, USA) and negative staining was applied with 10 mg/mL of Uranyl acetate (SPI Supplies, PA, USA). The grids were then dried at 25° C. The accelerating voltage of the TEM was set at 80 kV.

“5′ TAMRA-ooo-ACCCCTATCACGATTAGCATTAA-Lys 3′ (all peptide nucleic acid (PNA), 5' {TAMRA}-{ooo}, 3' {Lys}) [PNA-155]”: the “morphology (TEM)” value was “uniform discoidal morphology”.

Consider “5′ TAMRA-ooo-TCAGCCGCTGTCACACGCACAG-Lys-3′ (all peptide nucleic acid (PNA), 5' {TAMRA}-{ooo}, 3' {Lys}) [PNA-210]”, for which the “morphology (TEM)” value is given as “uniform discoidal morphology”.

(Values after patent US11833254B2, “Discoidal nano universal platform for efficient delivery of PNAs” (University of Connecticut, priority 2020, dated 2023).)
